Measurements published in patent publication US20260327260A1, “PHOSPHONOALANINE OLIGOPEPTIDES AND METHODS OF MAKING AND USE THEREOF” (priority 2023, published 2026).
Residues, ends and D or L forms follow the SMILES beside them.

Key:
Type in all cases: biochemical, Streptomyces sp. NRRL S-515
PnaB = PnaB ligation reactions (31P NMR, LC-HRMS); conditions: for conversion of dipeptide with PnAla into phosphonoalamide: role: substrate, dipeptide 3 mM, with PnAla 1 mM and ATP 3 mM, pH 9, 30° C
Procedure: (§1) These hypotheses were tested by overproducing and purifying recombinant PnaB and PnaC from E. coli for use in a series of biochemical assays. PnAla, Ala, and ATP were incubated with PnaB or PnaC and the reactions were monitored by ^31P NMR and LC-HRMS. […] To determine if either enzyme could convert Ala-Val into phosphonoalamide A, protein was removed from the PnaC reaction by ultrafiltration and Ala, ATP, and fresh PnaC or PnaB was added to the filtrate. LC-HRMS identified PnAla-Ala-Val as a product following the addition of PnaB, but not PnaC (FIG. 25A-FIG. 25C).
Biochemical assays of His6-PnaB. Typical reaction mixtures ([…]) contained 10 μM His6-PnaB, 3 mM ATP, 1 mM L-PnAla, 3 mM chemically synthesized L-Ala-L-Val, L-Val-L-Val, L-Ala-L-Ile, or L-Thr-L-Val in 50 mM Tris-HCl, 100 mM NaCl, 2 mM MgCl2 pH 9. Reactions were incubated at 30° C. for 2 hours, heat inactivated at 65° C. for 10 minutes, and then analyzed by NMR and LC-MS as described above.

PnaC = PnaC dipeptide ligation reactions (LC-HRMS); conditions: for nucleophiles accepted upon activation of the carboxylate: role: substrate (activated carboxylate); for acceptance as carboxylate: role: substrate (carboxylate), 30° C, 16 hours
Procedure: as §1
The ATP-Grasp ligases PnaC and PnaB underlie diversification of L-PnAla-containing oligopeptides. To understand the biochemical nature of this potential phosphonopeptide diversity, the substrate specificity of the dipeptide ligase PnaC was first delineated. Microscale biochemical reactions containing purified PnaC were performed with every combination of the 20 canonical amino acids and L-allo-threonine (231 total pairs of substrates). Reactions were analyzed by LC-HRMS to reveal putative dipeptides from 146 out of the 231 combinations. To distinguish residues in reactions containing isomeric pairs (e.g., Ile and Leu, Thr and allo-Thr) new reactions were prepared using ^15N-Ile and 4-^13C-2,3-D2-Thr as substrates. LC-HRMS/MS fragmentation analysis was then performed to verify all products and determine structures.
Biochemical assays of His6-PnaC. Typical reaction mixtures ([…]) contained 10 μM His6-PnaC, […], 3 mM of each L-amino acid, and 5 mM ATP in 50 mM Tris-HCl, 100 mM NaCl, 2 mM MgCl2 pH 9. Reactions were incubated at 30° C. for 16 hours, heat inactivated at 65° C. for 10 minutes, and then analyzed by LC-MS as described above.
(§2) Analysis of PnaC and PnaB substrate specificity reactions. An extracted ion chromatogram (EIC) was obtained for each potential product m z. The shape and retention time of each EIC were used to evaluate the quality and plausibility of true signals, and samples with low-confidence EICs were re-analyzed individually, to address the challenges of ion suppression (FIG. 31A-FIG. 31C) and background noise (FIG. 32A-FIG. 32D).

PnaB and PnaC = assay: One-pot tripeptide synthesis using PnaB and PnaC; conditions: for abundance of PnAla conjugate: role: substrate (dipeptide), with PnAla 1 mM and ATP 5 mM, one-pot with PnaC
Excerpt: Having established the diversity of dipeptides produced by PnaC, the reaction specificity of PnaB was probed. PnaC was used to generate substrates for the ligation of PnAla by PnaB. Microscale reactions contained PnaB, PnaC, PnAla, and all pairs of amino acids shown to form dipeptides. LC-HRMS and fragmentation analysis was then used to identify and verify PnAla-containing tripeptides from these 80 reactions (FIG. 4B, Table 4, Table 5). Altogether, the combined enzyme system produced 97 distinct PnAla-tripeptides, 93 of which had not been previously isolated (FIG. 29 & FIG. 30).
Tripeptide synthesis assays using PnaB and PnaC. Reaction mixtures ([…]) contained 10 μM His6-PnaB, 10 μM His6-PnaC, 1 mM L-PnAla, 3 mM L-amino acid A, 3 mM L-amino acid B, and 5 mM ATP in 50 mM Tris-HCl, 100 mM NaCl, 2 mM MgCl2 pH 9. Reactions were incubated at 30° C. for 16 hours, heat inactivated at 65° C. for 10 minutes, and then analyzed by NMR and LC-MS as described above.
as §2

PnaA with PnaD = assay: PnaD-PnaA coupled forward reaction, 31P NMR (PEP to PnAla)
Procedure: Biochemical assays of His6-SUMO-PnaA with His6-PnaD. Typical reaction mixtures (300 μL) contained 20 μM His6-PnaD, 20 μM His6-SUMO-PnaA, 1.5 mM PEP, 3 mM L-Asp, 100 μM pyridoxal 5′-phosphate (PLP), and 2 mM MgCl2 in 50 mM HEPES, 150 mM NaCl, pH 7.5. Reactions were incubated at 30° C. for 2 hours, heat inactivated at 65° C. for 10 minutes, and then analyzed by ^31P NMR and LC-MS as described above.
Reactions in timecourse experiments ([…]) contained 10 μM His6-PnaD, 10 μM His6-SUMO-PnaA, 1.5 mM PEP, 10 mM L-Asp, 100 μM pyridoxal 5′-phosphate (PLP), and 2 mM MgCl2 in 50 mM HEPES, 150 mM NaCl, pH 7.5. Samples were where heat inactivated 1, 5, 10, 30, 60, 120, and 240 min after initiation and then analyzed by ^31P NMR as described above.
Reactions examining the effect of amino donor concentrations were the same as above, except they contained 1.5, 3, 5, or 10 mM of (L-Asp). Samples were heat inactivated after 120 min and then analyzed by ^31P NMR as described above.

PnaD and PnaA = assay: Coupled PnaD-PnaA kinetics: PEP conversion to L-PnAla, coupled to MDH/NADH oxidation; conditions: second substrate L-Asp 5 mM
Excerpt: Apparent steady state parameters were also derived for the conversion of PEP to L-PnAla in reactions with equimolar amounts of PnaD and PnaA (FIG. 20A-FIG. 20B). […] The lower activity in the two-enzyme system is consistent with the slower rate of L-PnAla accumulation observed in the time course experiments (FIG. 16), reflects the unfavourability of PnPy formation [B30], and supports the general hypothesis that PepM activity is the limiting step in Pn biosynthetic pathways.
Kinetic analyses. All reactions (400 μL) were performed in 50 mM HEPES, 150 mM NaCl, pH 7.5, 30° C. using an Agilent Cary 300 spectrophotometer. The instrument was first blanked using the reaction containing the enzymes and the fixed substrate (without NADH). Initial rates were calculated from continual changes in absorbance (340 nm) before and after substrate addition. Data were analyzed using SigmaPlot 15.
Conversion of PEP and L-Asp to L-PnAla and OAA by His6-SUMO-PnaA and His6-PnaD. Each reaction contained 1 μM PnaA, 5 μM PnaD, 5 μM MDH, 200 uM NADH, 2 mM MgCl2, 5 mM L-Asp, and were initiated by the addition of 0.1, 0.2, 0.35, 0.5, 0.65, 0.8, or 1 mM PEP. PnaA was pre-incubated with PLP (1:5) on ice for 10 min prior to use.

PnaA = PnaA reverse transamination reaction, 31P NMR/LC-MS (PnAla to PnPy); conditions: role: cofactor; additional PLP provided, with PnAla and OAA
Procedure: Biochemical assays of His6-SUMO-PnaA. Typical reaction mixtures (300 μL) contained 20 μM His6-SUMO-PnaA, 1.5 mM L-PnAla, 3 mM oxaloacetate, and 100 μM pyridoxal 5′-phosphate (PLP) in 50 mM HEPES, 150 mM NaCl, pH 7.5. Reactions were incubated at 30° C. for 2 hours, heat inactivated at 65° C. for 10 minutes, and then analyzed by NMR and LC-MS as described above.
Reactions in time course experiments (150 μL) contained 10 μM His6-SUMO-PnaA, 1.5 mM L-PnAla, 10 mM oxaloacetate (OAA), and 100 μM pyridoxal 5′-phosphate (PLP) in 50 mM HEPES, 150 mM NaCl, pH7.5. Samples were where heat inactivated 1, 5, 10, 30, 60, 120, and 240 min after initiation and then analyzed by ^31P NMR as described above.
Reactions examining the effect of keto-acid acceptor concentrations were the same as above, except they contained 1.5, 3, 5, or 10 mM of (OAA). Samples were heat inactivated after 120 min and then analyzed by ^31P NMR as described above.

[1] = role: substrate (PEP, 0.1-1 mM), MgCl2 2 mM, PnaD and PnaA coupled, pH 7.5, 30° C

With `Nc1ncnc2c1ncn2[C@@H]1O[C@H](COP(=O)(O)OP(=O)(O)OP(=O)(O)O)[C@@H](O)[C@H]1O` [ATP, reference compound] the ATP requirement (PnaB; role: cofactor, ATP omitted) was “its omission abolished all activity” and the ATP requirement (PnaC; role: cofactor, ATP omitted) was “its omission abolished all activity”.

With `C[C@H](N)C(=O)O` [Ala, Alanine] the “substrate preference (average ion intensity of dipeptides)” value (PnaC; role: substrate, with ATP, LC-HRMS ion intensity) was “average ion intensity nearly a magnitude larger than any other group”.

With `C[C@H](N)C(=O)N[C@@H](C)C(=O)O` [Ala-Ala] (H-Ala-Ala-OH) the “abundance of PnAla conjugate” value (PnaB and PnaC) was “greatest abundance”.

In the case of `CC[C@H](C)[C@H](NC(=O)[C@H](C)N)C(=O)O` [Ala-Ile] (H-Ala-Ile-OH), the “conversion of dipeptide with PnAla into phosphonoalamide” value (from here on “conversion of dipeptide”) (PnaB) is reported as “respective conversion into phosphonoalamides B, C, and D” and the “abundance of PnAla conjugate” value (PnaB and PnaC) is reported as “greatest abundance”.

`CC(C)C[C@H](NC(=O)[C@H](C)N)C(=O)O` [Ala-Leu] (H-Ala-Leu-OH) was tested, and the “abundance of PnAla conjugate” value (PnaB and PnaC) was “greatest abundance”.

`CSCC[C@H](NC(=O)[C@H](C)N)C(=O)O` [Ala-Met] (H-Ala-Met-OH) was tested, and the “abundance of PnAla conjugate” value (PnaB and PnaC) was “greatest abundance”.

In the case of `CC(C)[C@H](NC(=O)[C@H](C)N)C(=O)O` [Ala-Val] (H-Ala-Val-OH), the “dipeptide product of PnaC reaction (Ala + Val, ATP)” value (PnaC; role: product, with Ala, Val, ATP) is reported as “product of the PnaC reaction” and the “abundance of PnAla conjugate” value (PnaB and PnaC) is reported as “greatest abundance”.

For `N[C@@H](CC(=O)O)C(=O)O` [L-Asp, reference compound], the “amino donor dependence of PnAla formation” value (PnaA with PnaD; role: substrate (amino donor), with PEP, PLP) was “strictly dependent on L-Asp as the amino donor”.

`CSCC[C@H](N)C(=O)N[C@@H](Cc1c[nH]c2ccccc12)C(=O)O` [Met-Trp] (H-Met-Trp-OH) was tested, and the “product of Met + Trp reaction” value (PnaC; role: product, PnaC-only reaction, Met and Trp, ATP) was “detected as the sole product”.

With `C=C(OP(=O)(O)O)C(=O)O` [PEP, phosphoenolpyruvate] the “catalytic efficiency lower than that of PnaA directly provided with PnPy (fold)” value (PnaD and PnaA; role: substrate (PEP), compared with PnPy) was 1,000 fold, the Km (PnaD and PnaA; [1]) was 547 µM and the kcat (PnaD and PnaA; [1]) was 0.084 s⁻¹.

For `Cc1ncc(COP(=O)(O)O)c(C=O)c1O` [PLP, pyridoxal 5′-phosphate, reference compound], the “effect of PLP on PnAla formation” value (PnaA with PnaD; role: cofactor, without addition of PLP) was “enzyme activity was observed at significantly reduced amounts” and the “effect of PLP on PnPy formation” value (PnaA) was “significantly greater PnPy was observed when additional PLP was provided”.

With `CSCC[C@H](NC(=O)[C@H](Cc1c[nH]c2ccccc12)NC(=O)[C@@H](N)CP(=O)(O)O)C(=O)O` [PnAla-Trp-Met] the “product of Met + Trp reaction” value (PnaB and PnaC; role: product, two-enzyme system PnaBC, Met and Trp 3 mM each, ATP 5 mM) was “major species”.

With `C[C@@H](O)[C@H](N)C(=O)O` [Thr, Threonine] the “nucleophiles accepted upon activation of the carboxylate” value (PnaC; with ATP) was “acceptance of Trp as a nucleophile, but not Thr or Pro”.

For `CC(C)[C@H](NC(=O)[C@@H](N)[C@@H](C)O)C(=O)O` [Thr-Val] (H-Thr-Val-OH), the “conversion of dipeptide” value (PnaB) was “respective conversion into phosphonoalamides B, C, and D”.

In the case of `CC(C)[C@H](N)C(=O)N[C@H](C(=O)O)C(C)C` [Val-Val] (H-Val-Val-OH), the “conversion of dipeptide” value (PnaB) is reported as “respective conversion into phosphonoalamides B, C, and D”.

In the case of `C[C@H](O)[C@H](N)C(=O)O` [allo-Thr, allothreonine], the “nucleophiles accepted upon activation of the carboxylate” value (PnaC; with ATP) is reported as “both Thr and Pro as nucleophiles, to the exclusion of Trp”.

For `N=C(N)NCCC[C@H](N)C(=O)O` [arginine, Arginine], the acceptance as carboxylate (PnaC; with ATP) was “all but arginine and cysteine were accepted as carboxylates”.

In the case of `N[C@@H](CS)C(=O)O` [cysteine, Cysteine], the acceptance as carboxylate (PnaC; with ATP) is reported as “all but arginine and cysteine were accepted as carboxylates”.
